Reference: ChEMBL document CHEMBL1201862, “PubChem BioAssay data set” (2004)
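Test compounds were applied to cells in 96-well plates for 48 hours at 5 doses. Here, GI50 denotes the concentration required for 50% inhibition of growth.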 The source made the active and inactive calls. Rule as the data show it: active = GI50 up to about 1.1 µM and inactive = higher.

Experiments:
Assay in all cases: inhibition of tumour cell growth, NCI panel, 48 h
[1] = system: A549
[2] = system: EKVX
[3] = system: HOP-92
[4] = system: HT-29
[5] = system: M14
[6] = system: MDA-MB-435
[7] = system: NCI-H226
[8] = system: NCI-H522
[9] = system: OVCAR-3
[10] = system: OVCAR-4
[11] = system: OVCAR-5
[12] = system: RXF 393
[13] = system: SF-295
[14] = system: SK-MEL-28
[15] = system: SK-MEL-2
[16] = system: SK-OV-3
[17] = system: SNB-75
[18] = system: UACC-257
[19] = system: UACC-62
[20] = system: UO-31

Row | SMILES | GI50 [1] | GI50 [2] | GI50 [3] | GI50 [4] | GI50 [5] | GI50 [6] | GI50 [7] | GI50 [8] | GI50 [9] | GI50 [10] | GI50 [11] | GI50 [12] | GI50 [13] | GI50 [14] | GI50 [15] | GI50 [16] | GI50 [17] | GI50 [18] | GI50 [19] | GI50 [20]
1 | O=C1c2ccccc2NC(c2cc(Cl)cc(Cl)c2O)N1CCc1ccccn1 (stereo not given) | 48.6 µM (inactive) | 62.5 µM (inactive) | 52.7 µM (inactive) | 80.9 µM (inactive) | 64.4 µM (inactive) | 68.1 µM (inactive) | > 100 µM (inactive) | 41.9 µM (inactive) | > 100 µM (inactive) | 36.8 µM (inactive) | > 100 µM (inactive) | 44.7 µM (inactive) | > 100 µM (inactive) | > 100 µM (inactive) | > 100 µM (inactive) | > 100 µM (inactive) | 42.6 µM (inactive) | 97.9 µM (inactive) | > 100 µM (inactive) | > 100 µM (inactive)
2 | O=S(=O)(O)c1cc(/N=N/c2c(O)ccc3ccccc23)c2c(S(=O)(=O)O)cccc2c1 | > 100 µM (inactive) | > 100 µM (inactive) | > 100 µM (inactive) | > 100 µM (inactive) | > 100 µM (inactive) | > 100 µM (inactive) | > 100 µM (inactive) | > 100 µM (inactive) | > 100 µM (inactive) | > 100 µM (inactive) | > 100 µM (inactive) | > 100 µM (inactive) | > 100 µM (inactive) | > 100 µM (inactive) | > 100 µM (inactive) | > 100 µM (inactive) | < 0.01 µM (active) | > 100 µM (inactive) | > 100 µM (inactive) | > 100 µM (inactive)
3 | COc1ccc(C(=O)c2ccc(-n3c4ccccc4c4ccc5c(c43)C(=O)C=CC5=O)cc2)cc1 | 3.17 µM (inactive) | 1.86 µM (inactive) | 1.99 µM (inactive) | 1.06 µM (active) | 2.53 µM (inactive) | 1.39 µM (inactive) | 17.3 µM (inactive) | 0.217 µM (active) | 1.14 µM (inactive) | 2.55 µM (inactive) | 19.5 µM (inactive) | 0.845 µM (active) | 5.43 µM (inactive) | 2.99 µM (inactive) | 3.88 µM (inactive) | 13.7 µM (inactive) | 3.66 µM (inactive) | 2.54 µM (inactive) | 3.03 µM (inactive) | 0.52 µM (active)
4 | CCN(CC)CCCNc1ccc2nc(C)n3c4ccc(O)cc4c(=O)c1c23 | 2.11 µM (inactive) | 11.4 µM (inactive) | 2.89 µM (inactive) | 1.17 µM (inactive) | 8.61 µM (inactive) | 9.89 µM (inactive) | 6.46 µM (inactive) | 0.485 µM (active) | 8.09 µM (inactive) | 4.65 µM (inactive) | 6.22 µM (inactive) | 3.89 µM (inactive) | 5.16 µM (inactive) | 12.7 µM (inactive) | 6.35 µM (inactive) | 6.64 µM (inactive) | 0.881 µM (active) | 15.5 µM (inactive) | 10 µM (inactive) | 5.89 µM (inactive)
5 | COc1ccc(C(SC2C(O)C(CO)OC2n2ccc(=O)[nH]c2=O)(c2ccccc2)c2ccc(OC)cc2)cc1 (stereo not given) | 16.4 µM (inactive) | 17.1 µM (inactive) | 15.6 µM (inactive) | 17.6 µM (inactive) | 11.3 µM (inactive) | 9.1 µM (inactive) | 16.6 µM (inactive) | 14.7 µM (inactive) | 17.6 µM (inactive) | 19.7 µM (inactive) | 18.4 µM (inactive) | 18.1 µM (inactive) | 7.57 µM (inactive) | 21.8 µM (inactive) | 15.1 µM (inactive) | 13.7 µM (inactive) | 18.5 µM (inactive) | 16.1 µM (inactive) | 15.9 µM (inactive) | 16.6 µM (inactive)
6 | O=C(CN1CCN(C(=O)OCc2ccccc2)CCN(CC(=O)N2CCCCC2)CCN(C(=O)OCc2ccccc2)CC1)N1CCCCC1 | 20.8 µM (inactive) | 24.9 µM (inactive) | 12.9 µM (inactive) | 7.46 µM (inactive) | 10.1 µM (inactive) | 16.1 µM (inactive) | 5.82 µM (inactive) | 5.52 µM (inactive) | 10.7 µM (inactive) | 4.8 µM (inactive) | 19.6 µM (inactive) | 11.9 µM (inactive) | 18.7 µM (inactive) | 14.7 µM (inactive) | 19.5 µM (inactive) | 27.7 µM (inactive) | 4.22 µM (inactive) | 3.49 µM (inactive) | 18.1 µM (inactive) | 3.19 µM (inactive)
7 | CN(C)CCNc1ccc2ncn3c4ccc(O)cc4c(=O)c1c23 | 0.0661 µM (active) | 5.22 µM (inactive) | 2.54 µM (inactive) | 1.06 µM (active) | 1.63 µM (inactive) | 2.41 µM (inactive) | 0.476 µM (active) | 0.409 µM (active) | 3.04 µM (inactive) | 1.04 µM (active) | 3.38 µM (inactive) | 0.617 µM (active) | 1.39 µM (inactive) | 4.53 µM (inactive) | 3.79 µM (inactive) | 1.29 µM (inactive) | 0.404 µM (active) | 5.74 µM (inactive) | 3.44 µM (inactive) | 0.845 µM (active)
8 | CC1CCCC2(CC[N+](C)(CCC[N+](C)(C)C)CC2)C1 (stereo not given) | > 100 µM (inactive) | > 100 µM (inactive) | > 100 µM (inactive) | > 100 µM (inactive) | > 100 µM (inactive) | > 100 µM (inactive) | > 100 µM (inactive) | > 100 µM (inactive) | > 100 µM (inactive) | > 100 µM (inactive) | > 100 µM (inactive) | > 100 µM (inactive) | > 100 µM (inactive) | > 100 µM (inactive) | > 100 µM (inactive) | > 100 µM (inactive) | > 100 µM (inactive) | > 100 µM (inactive) | > 100 µM (inactive) | > 100 µM (inactive)
9 | COC(=O)CC1C2CC3C(C2=O)C13 (stereo not given) | > 100 µM (inactive) | > 100 µM (inactive) | > 100 µM (inactive) | > 100 µM (inactive) | > 100 µM (inactive) | > 100 µM (inactive) | > 100 µM (inactive) | > 100 µM (inactive) | > 100 µM (inactive) | > 100 µM (inactive) | > 100 µM (inactive) | > 100 µM (inactive) | > 100 µM (inactive) | > 100 µM (inactive) | > 100 µM (inactive) | > 100 µM (inactive) | 58.1 µM (inactive) | > 100 µM (inactive) | > 100 µM (inactive) | > 100 µM (inactive)
10 | CCN(CC)Cc1cc(/N=N\c2c(O)ccc3c(/N=N\c4ccc(O)c(CN(CC)CC)c4)c(O)ccc23)ccc1O | 2.42 µM (inactive) | 4.56 µM (inactive) | 4.58 µM (inactive) | 2.57 µM (inactive) | 5.4 µM (inactive) | 3.65 µM (inactive) | 4.54 µM (inactive) | 2.31 µM (inactive) | 3.73 µM (inactive) | 1.77 µM (inactive) | 6.49 µM (inactive) | 2.94 µM (inactive) | 5.01 µM (inactive) | 5.96 µM (inactive) | 12.6 µM (inactive) | 2.77 µM (inactive) | 6.28 µM (inactive) | 5.75 µM (inactive) | 4.41 µM (inactive) | 2 µM (inactive)
11 | Nc1ccc2c(c1)Nc1c3ccccc3nc3cccc-2c13 | 1.36 µM (inactive) | 1.69 µM (inactive) | 1.6 µM (inactive) | 1.18 µM (inactive) | 2.12 µM (inactive) | 1.81 µM (inactive) | 1.62 µM (inactive) | 1.55 µM (inactive) | 1.72 µM (inactive) | 1.72 µM (inactive) | 1.77 µM (inactive) | 1.64 µM (inactive) | 1.29 µM (inactive) | 1.99 µM (inactive) | 1.73 µM (inactive) | 1.61 µM (inactive) | 1.4 µM (inactive) | 2 µM (inactive) | 1.82 µM (inactive) | 1.72 µM (inactive)
12 | Cc1cccc(CP(Cc2cccc(C)c2)CC2(Cp3c4ccccc4c4ccccc43)COC2)c1 | 0.206 µM (active) | 14.1 µM (inactive) | 1.99 µM (inactive) | 0.485 µM (active) | 3.97 µM (inactive) | 5.71 µM (inactive) | 4.11 µM (inactive) | 1.18 µM (inactive) | 8.43 µM (inactive) | 13.3 µM (inactive) | > 100 µM (inactive) | > 20.3 µM (inactive) | 2.18 µM (inactive) | 13 µM (inactive) | 7.23 µM (inactive) | > 100 µM (inactive) | 0.501 µM (active) | 8.97 µM (inactive) | 11.7 µM (inactive) | 16.3 µM (inactive)
13 | NC1=C(Cl)C(=O)c2c(O)ccc(O)c2C1=O | 2.2 µM (inactive) | 12 µM (inactive) | 12.1 µM (inactive) | 2.54 µM (inactive) | 1.85 µM (inactive) | 2.01 µM (inactive) | 11.6 µM (inactive) | 14.6 µM (inactive) | 2.22 µM (inactive) | 4.11 µM (inactive) | 5.85 µM (inactive) | 7.45 µM (inactive) | 2.1 µM (inactive) | 2.39 µM (inactive) | 4.72 µM (inactive) | 20.9 µM (inactive) | 5.41 µM (inactive) | 1.6 µM (inactive) | 1.59 µM (inactive) | 9.06 µM (inactive)
